Data set [1] in a line: Apparent solubility/extended kinetic solubility by UHPLC. The settings on record: aqueous buffer, thermodynamic from solid, phosphate buffer, 37° C. It counts as physicochemical. The protocol:
Biological Assay—Determination of Apparent Solubility/Extended Kinetic Solubility by UHPLC
Test sample preparation: About 0.5 mg of the test sample was weighed and transferred in duplicate in 1 mL glass inserts of 96 well plates. 5 μL of DMSO and 1 ml of phosphate buffer were added. Allowed for equilibrium in an orbital shaker at 37° C. for 24 hrs. Later, allowed it cool to room temperature and centrifuged the 96 well plate (at 240×10 RPM for 20 min) and supernatant material was taken into collection plate, covered it with the heat resistant aluminum sheet or supernatant material was directly taken into HPLC sample vial.
Injected diluent as blank and linearity solutions in duplicate. Recorded the chromatograms and plotted the calibration curve, concentration (X-axis) versus Area (y-axis). The correlation coefficient for calibration curve should be not less than 0.95. If above criteria passes, then injected the test samples and recorded the chromatograms. In case saturated peaks are observed, then diluted the test sample with diluent as appropriate.
Calculated the slope and intercept of the calibration curve. From the standard curve, determined the solubility of the sample in μM (micromolar).

In data set [2] the test system is Interferon beta (IFNβ), interleukin-6 (IL-6) and tumor necrosis factor alpha (TNFα). Nature of the data set: Serum and tumor cytokine levels in CT26 tumor-bearing mice (ELISA). In kind it is in vivo, BALB/c mice. The settings on record: 0.375 mg/kg single i.v. The protocol:
Pharmacokinetic and Pharmacodynamic Profiling and Estimation of Immune Cell Infiltration in Tumors Following Treatment with Compounds 2, 6, 8, 12 and 14
Serum and tumor cytokine levels and corresponding compound concentrations in mouse plasma were determined following single-dose intravenous administration in CT26 (murine colorectal carcinoma) tumor-bearing mice. Briefly, naïve BALB/c mice in the age group of 6-8 weeks were inoculated with 0.1 million CT-26 cells/animal in phosphate buffered saline (PBS), subcutaneously. […] Blood and tumor samples were harvested at various time points up to 24 h post-dose. Tumor samples were homogenized and prepared for cytokine estimation (ELISA) and compound concentration were determined by LC-MS/MS. Serum aliquots and tumor samples were snap-frozen and stored at −80° C. till further analysis. Serum and tumor samples were evaluated for Interferon beta (IFNβ), interleukin-6 (IL-6) and tumor necrosis factor alpha (TNFα) by enzyme linked immunosorbent assay (ELISA) using kits from R & D systems (Quantikine mouse IL-6 and TNFα kits) and PBL biosciences (Verikine mouse IFNβ kit).
Cytokine analysis from mouse serum samples: For IL-6 and TNFα estimation, 50 μL of test samples or internal standard or control were applied to wells in duplicates and incubated for 2 h at room temperature, followed by aspiration and washing four times with 400 μL of wash buffer. 100 μL of mouse IL-6 or TNFα conjugate solution was added and incubated further for 2 h at room temperature and followed later by 4 wash cycles. 100 μL of substrate solution was added to each well with addition of stop solution after 30 min. Optical density was measured at 450 nm averaged and was used for further calculations following subtraction of respective blank controls. Cytokine concentrations were determined by interpolating the optical density of samples into the reference standard curve utilizing four parameter logistic (4-PL) curve-fit. Cytokine concentrations were normalized with their respective dilution factors and represented in pg/mL. For IFNβ estimation, 100 μL test sample or internal standard or controls were applied to the wells in duplicates and incubated for 1 h at room temperature followed by three washes and addition of the anti-mouse IFNβ antibody solution with further 1 h incubation. This was followed by addition of horseradish peroxidase (HRP) solution and three washes, later addition of TMB substrate and reading the optical density at 450 nm. Optical densities were blank-subtracted and interpolated to the reference standard utilizing the four parameter logistic (4-PL) curve-fit. Cytokine concentrations were normalized with their respective dilution factors and represented in pg/mL. Tables 4 and 5 indicate cytokine levels for compounds 2, 6, 8, 12, and 14 in serum and tumor at different administered doses.
Cytokine analysis from tumor samples: Tumor samples were homogenized in a bead-based homogenizer and lysates were prepared with buffer supplemented with 1% Triton X-100 and protease inhibitors. Cytokine levels were estimated by ELISA and expressed as pg/g tumor.
A general note: An ELISA detects its analyte on a solid surface through an enzyme-linked reagent.

In data set [3] the target is T1, Human STING (Homo sapiens, UniProt Q86WV6, G230A/H232R/R293Q/R71H).
T1 construct: using human THP1-Blue™ ISG SEAP based reporter cell line (Invivogen); host or cells: THP1-Blue ISG cells (human monocytic THP-1 derived SEAP reporter line)
Description: Stimulation of human STING signaling in THP1 cell line (THP1-Blue ISG SEAP reporter). In kind it is cell-based. As to conditions: THP1-Blue ISG cells, SEAP activity, 18-20 hours. An outline of the steps:
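THP1-Blue ISG reporter cells dosed with compound over a concentration range for 18-20 h at 37 °C, 5% CO2. SEAP in supernatant read by QuantiBlue absorbance at 620 nm. EC50 fitted from duplicate points; fold induction taken relative to unstimulated cells.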

Data set [4] deals with CD3^+CD8^+ T cells. Description: Estimation of immune cell infiltration in tumors (flow cytometry). It counts as in vivo, Balb/c mice. The settings on record: for % CD3^+CD8^+ T cells: infiltration in tumor, 96 h post treatment, 0.375 mg/kg single i.v.; for % CD3^+CD8^+ T cells infiltrating the tumor as compared to the vehicle-treated group: single i.v. dose of 0.375 mg/kg, 96 h post treatment initiation. How it is done: Estimation of immune cell infiltration in tumors: CT-26 tumor-bearing Balb/c mice were treated intravenously with 0.375 mg/kg of test compounds and blood and tumors were processed for analysis of CD8^+, CD3^+ and CD45^+ T cells at 24 h and 96 h after start of treatment. Blood samples were subjected to RBC lysis and the cells were recovered by centrifugation. Following wash with PBS, the cells were blocked using TruStain FcX™ blocking antibody and stained with fluorophore-tagged anti-CD45, anti-CD3 and anti-CD8 antibodies. Tumor samples were minced and subjected to tissue digestion using freshly prepared collagenase-IV solution (1 mg/ml) containing DNase (0.05 mg/ml) for 1-1.5 h at 37° C. and 150-200 rpm. Single cell suspension was prepared by filtering it through a 100 μm mesh and checked for cell viability. Cells were stained with various antibodies as mentioned above. The distinct T cell subsets were analysed on FACS Canto II (BD) and percentage of each population was calculated after initial gating of CD45^+ lymphocyte population.

Each structure is given as a SMILES string. Counter-ions that a name gives are not always drawn.

T1 sequence (Q86WV6 whole entry R71H/G230A/H232R/R293Q): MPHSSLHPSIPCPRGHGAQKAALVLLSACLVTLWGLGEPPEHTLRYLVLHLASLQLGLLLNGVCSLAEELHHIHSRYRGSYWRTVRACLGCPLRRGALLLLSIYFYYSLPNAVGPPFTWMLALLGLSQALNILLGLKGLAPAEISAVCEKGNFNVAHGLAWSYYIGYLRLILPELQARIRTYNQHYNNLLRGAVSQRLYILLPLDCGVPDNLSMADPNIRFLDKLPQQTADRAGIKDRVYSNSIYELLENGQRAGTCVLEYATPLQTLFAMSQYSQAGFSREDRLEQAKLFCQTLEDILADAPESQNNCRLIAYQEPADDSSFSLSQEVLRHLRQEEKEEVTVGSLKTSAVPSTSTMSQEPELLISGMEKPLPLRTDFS

The term solubility denotes the dissolved amount per volume that the medium holds. As usually defined, the EC50 is the concentration that produces a half-maximal response. Higher therefore signals a less potent agent. Consider `CCn1nc(C)cc1C(=O)Nc1nc2cc(C(N)=O)cc3c2n1C/C=C/Cn1c(NC(=O)c2cc(C)nn2CC)nc2cc(C(=O)N[C@H]4CC[C@H](c5nnn[nH]5)CC4)cc(c21)OCCCO3` [Compound 6, (E)-N-((1R,4R)-4-(1H-tetrazol-5-yl)cyclohexyl)-1,15-bis(1-ethyl-3-methyl-1H-pyrazole-5-carboxamido)-8,9,16,19-tetrahydro-7H-6,10-dioxa-2,14,15a,19a-tetraazacyclopentadeca[3,2,1-cd:8,9,10-c′d′]diindene-4,12-dicarboxamide sodium salt], for which the solubility at 24 h in data set [1] was 3.5 mM. Moreover, the “Serum IFNβ” value in data set [2] (3.5 h (Table 6)) was 3375 ± 528.4 pg/mL; in data set [2] (8 h (Table 6)), 215 ± 39.9 pg/mL; in data set [2] (12 h (Table 6)), “BLQ”; in data set [2] (24 h (Table 6)), “BLQ”. The “Tumor IFNβ” value was 6931 ± 1236.8 pg/g tumor in data set [2] (3.5 h (Table 6)), 1814 ± 369.3 pg/g tumor in data set [2] (8 h (Table 6)), 1916 ± 842.7 pg/g tumor in data set [2] (12 h (Table 6)) and 506 ± 239.1 pg/g tumor in data set [2] (24 h (Table 6)). The same molecule returned an EC50 in data set [3] of 1 to 10 nM. Further, in data set [4], the “% CD3^+CD8^+ T cells” value is given as 13.9 ± 1.3%. Also, in data set [4], the “% CD3^+CD8^+ T cells infiltrating the tumor as compared to the vehicle-treated group” value is recorded as “increase”.
Take `CCn1nc(C)cc1C(=O)Nc1nc2cc(C(N)=O)cc3c2n1C/C=C/Cn1c(NC(=O)c2cc(C)nn2CC)nc2cc(C(=O)NCCCn4cc(C(=O)O)cn4)cc(c21)OCCCO3` [Compound 8, (E)-1-(3-(12-carbamoyl-1,15-bis(1-ethyl-3-methyl-1H-pyrazole-5-carboxamido)-8,9,16,19-tetrahydro-7H-6,10-dioxa-2,14,15a,19a-tetraazacyclopentadeca[3,2,1-cd:8,9,10-c′d′]diindene-4-carboxamido)propyl)-1H-pyrazole-4-carboxylic acid sodium salt]: the solubility at 24 h in data set [1] turned out to be 5.23 mM. Moreover, the “Serum IFNβ” value in data set [2] (3.5 h (Table 6)) is 20553 ± 3011.24 pg/mL; in data set [2] (8 h (Table 6)) it was 307 ± 64.6 pg/mL; in data set [2] (12 h (Table 6)), 43 ± 33.5 pg/mL; in data set [2] (24 h (Table 6)), “BLQ”. Also, the “Tumor IFNβ” value in data set [2] (3.5 h (Table 6)) came to 7975 ± 1164.2 pg/g tumor; in data set [2] (8 h (Table 6)), 1182 ± 321.2 pg/g tumor; in data set [2] (12 h (Table 6)), 284 ± 84.2 pg/g tumor; in data set [2] (24 h (Table 6)), 197 ± 84.7 pg/g tumor. Besides, the EC50 in data set [3] was in the range of 1 to 10 nM. For the same molecule, in data set [4], the “% CD3^+CD8^+ T cells” value was 15.5 ± 2.2%. Moreover, the “% CD3^+CD8^+ T cells infiltrating the tumor as compared to the vehicle-treated group” value in data set [4] was “increase”.
On to `CCn1nc(C)cc1C(=O)Nc1nc2cc(C(N)=O)cc3c2n1C/C=C/Cn1c(NC(=O)c2cc(C)nn2CC)nc2cc(C(=O)N[C@H]4CC[C@H](c5nnn[nH]5)CC4)cc(c21)OC[C@@H](N1C2CCC1COC2)CO3` [Compound 12, (8S,E)-N4-((1R,4S)-4-(1H-tetrazol-5-yl)cyclohexyl)-8-(3-oxa-8-azabicyclo[3.2.1]octan-8-yl)-1,15-bis(1-ethyl-3-methyl-1H-pyrazole-5-carboxamido)-8,9,16,19-tetrahydro-7H-6,10-dioxa-2,14,15a,19a-tetraazacyclopentadeca[3,2,1-cd:8,9,10-c′d′]diindene-4,12-dicarboxamide sodium salt], for which the solubility at 24 h in data set [1] was 14.2 mM. Besides, the “Serum IFNβ” value is 4248 ± 706 pg/mL in data set [2] (3.5 h (Table 6)), 568 ± 48.6 pg/mL in data set [2] (8 h (Table 6)), 16 ± 15.7 pg/mL in data set [2] (12 h (Table 6)) and “BLQ” in data set [2] (24 h (Table 6)). For the same molecule, the “Tumor IFNβ” value in data set [2] (3.5 h (Table 6)) was 6190 ± 687.0 pg/g tumor; in data set [2] (8 h (Table 6)) it was 1144 ± 128.9 pg/g tumor; in data set [2] (12 h (Table 6)), 789 ± 378.2 pg/g tumor; in data set [2] (24 h (Table 6)), 94 ± 48.3 pg/g tumor. Further, in data set [3], the EC50 was 1 to 10 nM. For the same molecule, the “% CD3^+CD8^+ T cells” value in data set [4] was 12.2 ± 0.5%. Also, in data set [4], the “% CD3^+CD8^+ T cells infiltrating the tumor as compared to the vehicle-treated group” value is on record as “increase”.

The record behind these values is US12479858B2, “Macrocyclic compounds as sting agonists and methods and uses thereof” (Lupin Limited, priority 2019, dated 2025).
